In PubChem BioAssay (NCI):
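Where inhibition never reached the appropriate level, the endpoint shown equals the highest concentration tested. Otherwise, values were interpolated linearly from a five-concentration, 48-hour dose response in 96-well plates. At the GI50, growth is halved. TGI is the concentration that stops growth completely.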

Key:
Experiment in all cases: growth of human tumour cells (NCI), 48 h
UACC-257 melanoma = tested on: UACC-257 melanoma
786-0 renal = tested on: 786-0 renal
BT-549 breast = tested on: BT-549 breast
HOP-62 NSCLC = tested on: HOP-62 NSCLC
KM12 colon = tested on: KM12 colon
MCF7 breast = tested on: MCF7 breast
OVCAR-8 ovarian = tested on: OVCAR-8 ovarian
HCT-15 colon = tested on: HCT-15 colon
MDA-MB-435 = tested on: MDA-MB-435
OVCAR-3 ovarian = tested on: OVCAR-3 ovarian
A549 NSCLC = tested on: A549 NSCLC
SN12C renal = tested on: SN12C renal
MDA-MB-231 breast = tested on: MDA-MB-231 breast
RXF 393 renal = tested on: RXF 393 renal
LOX IMVI melanoma = tested on: LOX IMVI melanoma
MOLT-4 leukemia = tested on: MOLT-4 leukemia
SNB-19 CNS = tested on: SNB-19 CNS
ACHN renal = tested on: ACHN renal
SK-OV-3 ovarian = tested on: SK-OV-3 ovarian
A498 renal = tested on: A498 renal
NCI-H226 lung = tested on: NCI-H226 lung
SK-MEL-28 melanoma = tested on: SK-MEL-28 melanoma
SW-620 colon = tested on: SW-620 colon
NCI/ADR-RES ovarian = tested on: NCI/ADR-RES ovarian
HT29 colon = tested on: HT29 colon
HL-60(TB) leukemia = tested on: HL-60(TB) leukemia
CAKI-1 renal = tested on: CAKI-1 renal
RPMI-8226 leukemia = tested on: RPMI-8226 leukemia
SNB-75 CNS = tested on: SNB-75 CNS
COLO 205 colon = tested on: COLO 205 colon
NCI-H460 lung = tested on: NCI-H460 lung
UACC-62 melanoma = tested on: UACC-62 melanoma
HCC-2998 colon = tested on: HCC-2998 colon
SF-539 CNS = tested on: SF-539 CNS
UO-31 renal = tested on: UO-31 renal
K-562 leukemia = tested on: K-562 leukemia
EKVX NSCLC = tested on: EKVX NSCLC
HS 578T breast = tested on: HS 578T breast
SR leukemia = tested on: SR leukemia
NCI-H522 lung = tested on: NCI-H522 lung
OVCAR-4 ovarian = tested on: OVCAR-4 ovarian
IGROV1 ovarian = tested on: IGROV1 ovarian
T-47D breast = tested on: T-47D breast
SK-MEL-5 melanoma = tested on: SK-MEL-5 melanoma
SF-268 CNS = tested on: SF-268 CNS
SK-MEL-2 melanoma = tested on: SK-MEL-2 melanoma
TK-10 renal = tested on: TK-10 renal
MALME-3M melanoma = tested on: MALME-3M melanoma
PC-3 prostate = tested on: PC-3 prostate
M14 melanoma = tested on: M14 melanoma
HCT-116 colon = tested on: HCT-116 colon
HOP-92 NSCLC = tested on: HOP-92 NSCLC
U251 CNS = tested on: U251 CNS
OVCAR-5 ovarian = tested on: OVCAR-5 ovarian
SF-295 CNS = tested on: SF-295 CNS
DU-145 prostate = tested on: DU-145 prostate

## N#Cc1nc(-c2ccccc2)oc1S(=O)(=O)N1CCN(CCc2ccccn2)CC1
UACC-257 melanoma
  GI50: 4.58 µM
  TGI: 17.5 µM
786-0 renal
  GI50: 2.21 µM
  TGI: 6.09 µM
BT-549 breast
  GI50: 3.36 µM
  TGI: 12.7 µM
HOP-62 NSCLC
  GI50: 20.8 µM
  TGI: 58.9 µM
KM12 colon
  GI50: 13.5 µM
  TGI: 36.4 µM
MCF7 breast
  GI50: 1.83 µM
  TGI: 10.2 µM
OVCAR-8 ovarian
  GI50: 14 µM
  TGI: 49.9 µM
HCT-15 colon
  GI50: 1.86 µM
  TGI: 5.87 µM
MDA-MB-435
  GI50: 4.08 µM
  TGI: 16.7 µM
OVCAR-3 ovarian
  GI50: 1.67 µM
  TGI: 3.22 µM
A549 NSCLC
  GI50: 24.6 µM
  TGI: > 100 µM
SN12C renal
  GI50: 10.4 µM
  TGI: 24.2 µM
MDA-MB-231 breast
  GI50: 15.5 µM
  TGI: 34.4 µM
RXF 393 renal
  GI50: 1.89 µM
  TGI: 3.74 µM
LOX IMVI melanoma
  GI50: 1.22 µM
  TGI: 2.69 µM
MOLT-4 leukemia
  GI50: 2.16 µM
  TGI: 8.35 µM
SNB-19 CNS
  GI50: 20.5 µM
  TGI: 57.9 µM
ACHN renal
  GI50: 1.67 µM
  TGI: 3.09 µM
SK-OV-3 ovarian
  GI50: 30.4 µM
  TGI: > 100 µM
A498 renal
  GI50: > 100 µM
  TGI: > 100 µM
NCI-H226 lung
  GI50: 2.58 µM
  TGI: 7.78 µM
SK-MEL-28 melanoma
  GI50: 2.9 µM
  TGI: 9.42 µM
SW-620 colon
  GI50: 0.985 µM
  TGI: 2.7 µM
NCI/ADR-RES ovarian
  GI50: 19.3 µM
  TGI: 94.5 µM
HT29 colon
  GI50: 1.72 µM
  TGI: 3.44 µM
HL-60(TB) leukemia
  GI50: 1.55 µM
  TGI: 4.85 µM
CAKI-1 renal
  GI50: 1.18 µM
  TGI: 2.41 µM
RPMI-8226 leukemia
  GI50: 2.75 µM
SNB-75 CNS
  GI50: 12.3 µM
  TGI: 24.8 µM
COLO 205 colon
  GI50: 1.54 µM
  TGI: 3.02 µM
NCI-H460 lung
  GI50: 12.3 µM
  TGI: 32.7 µM
UACC-62 melanoma
  GI50: 9.85 µM
  TGI: 23.2 µM
HCC-2998 colon
  GI50: 14.2 µM
  TGI: 28.9 µM
SF-539 CNS
  GI50: 3.99 µM
  TGI: 13.7 µM
UO-31 renal
  GI50: 2.64 µM
  TGI: 9.81 µM
K-562 leukemia
  GI50: 0.562 µM
  TGI: 7.78 µM
EKVX NSCLC
  GI50: 23.3 µM
  TGI: 68.2 µM
HS 578T breast
  GI50: 17.3 µM
  TGI: 61.9 µM
SR leukemia
  GI50: 1.41 µM
  TGI: 5.19 µM
NCI-H522 lung
  GI50: 1.04 µM
  TGI: 2.36 µM
OVCAR-4 ovarian
  GI50: 2.91 µM
  TGI: 9.94 µM
IGROV1 ovarian
  GI50: 15.1 µM
  TGI: 47.9 µM
T-47D breast
  GI50: 1.87 µM
  TGI: 4.41 µM
SK-MEL-5 melanoma
  GI50: 16.7 µM
  TGI: 32.4 µM
SF-268 CNS
  GI50: 10.5 µM
  TGI: 35.9 µM
SK-MEL-2 melanoma
  GI50: 12.4 µM
  TGI: 29.2 µM
TK-10 renal
  GI50: 7.32 µM
  TGI: 19.7 µM
MALME-3M melanoma
  GI50: 1.87 µM
  TGI: 3.69 µM
PC-3 prostate
  GI50: 12.3 µM
  TGI: 26.7 µM
M14 melanoma
  GI50: 2.29 µM
  TGI: 9.51 µM
HCT-116 colon
  GI50: 1.28 µM
  TGI: 2.61 µM
HOP-92 NSCLC
  GI50: 2.23 µM
  TGI: 6.92 µM
U251 CNS
  GI50: 13.5 µM
  TGI: 27 µM
OVCAR-5 ovarian
  GI50: 12.5 µM
  TGI: 26 µM
SF-295 CNS
  GI50: 29.2 µM
  TGI: 87.2 µM
DU-145 prostate
  GI50: 4.56 µM
  TGI: 22.3 µM
